Laboratory results reported in US12029726B1, “Composition and method of treating conditions associated with extracellular matrix dysfunction by administering micronutrient composition” (priority 2023, dated 2024).

tested on: cultured human chondrocytes and synovial fibroblasts; assay: LPS-induced arthritic processes in cultured human synovial cells (IL6, MMP13 release; Col2, Aggr, HA content), summary; type: cell-based; conditions: added to cell culture medium with LPS
Source text: Inflammation process was initiated by additions of bacterial lipopolysaccharide (LPS) to cell culture medium. Tested parameters included cellular release of interleukin 6 (IL6) as an indicator of induced inflammation, cell culture accumulation of specific extracellular matrix (ECM) components, such as collagen type II (Col2), aggrecan (Aggr) and hyaluronic acid (HA), and release of matrix metalloproteinase 13 (MMP13) as an indicator of cartilage digesting process. Addition of LPS to cell cultures induced inflammation process characterized by dramatic increase in cellular release of IL6 and MMP13 and reduction in cell culture content of Col2, Aggr and HA.
Experiments: For the experiments cells were seeded in 96 well plastic cell culture plates covered with fibronectin (Greiner Bio-One) and grown to a confluent layer at 37° C. and 5% CO2 in corresponding cell culture medium. Cells were supplemented with 3 mcg/ml bacterial lipopolysaccharide (LPS, inflammation inducing treatment) and micronutrient composition were applied for indicated period in growth medium as indicated in the corresponding figure legends. At the end of the incubation cultured cells layers were washed twice with phosphate buffered saline (PBS) and treated in two ways: for the exposition of extracellular matrix (ECM) cells were lysed by 3 min incubation with 0.5% Triton X100/PBS which was followed by 3 min incubation with 25 mM NH4OH/PBS at room temperature or the cells were fixed by using 3% formaldehyde/PBS for one hour at 4° C. […]
Aggrecan, Collagen type II and Hyaluronic Acid content in 96 well plates prepared as described above, which is either exposed ECM or in fixed cells, was assayed by standard sandwich type immunoassay (ELISA, all reagents from Sigma-Aldrich) using rabbit polyclonal anti aggrecan, rabbit polyclonal anti collagen type II antibodies or biotinylated Hyaluronic Acid binding protein as primary treatment and goat anti rabbit IgG antibodies conjugated with horse radish peroxidase (HRP) or HRP-conjugated High Density Streptavidin as secondary treatment, respectively. Assayed component content was estimated by color changing reaction of HRP substrate (TMB substrate solution, Sigma-Aldrich) measured as 450 nm optical density using microplate optical density reader (Molecular Devices). […]
Effects of Micronutrient composition on Release of Inflammation Markers in Cultured Human Synovial Cells: Inflammation process was induced in human chondrocytes cultured in 96 well plates with LPS as described above. […] At the end of indicated incubation period interleukin 6 (IL6) and matrix metalloproteinase 13 (MMP13) levels in conditioned cell culture media were measured by ELISA using assay kits (R&D Systems) in accordance with manufacturer's protocol. […]

| SMILES | reversal of LPS-induced arthritic processes (increase in IL6 and MMP13 release, reduction in Col2, Aggr and HA content) |
| --- | --- |
| NC(=O)CC[C@H](N)C(=O)O [L-Glutamine] | reversed to different degrees |
| O=C(O)CCC(=O)C(=O)O [Alpha Keto-Glutarate] | reversed to different degrees |
| C[S+](CC[C@H](N)C(=O)[O-])C[C@H]1O[C@@H](n2cnc3c(N)ncnc32)[C@H](O)[C@@H]1O (stereo partly shown) [S-Adenosyl Methionine] | reversed to different degrees |
| O=C([O-])/C=C/C(=O)[O-].[Fe+2] [Iron (II) Fumarate] | reversed to different degrees |
